Experiments:
[1] = system: intracellular HBV DNA; assay: Real-time PCR for intracellular HBV DNA in HepAD38 cells; type: cell-based, hepatitis B virus (HBV); conditions: treated for 65 hours, intracellular HBV DNA by real-time PCR
Experimental: HepAD38 cells were cultured in DMEM medium (Welgene) supplemented with 200 unit/mL penicillin, 200 μg/mL streptomycin, and 10% FBS. During maintenance and passage, the cells were cultured together with 0.4 μg/mL tetracycline. Two days before the treatment with compounds for inducing HBV replication was started, the medium was replaced with a tetracycline-free complete growth medium. […]
HepAD38 cells were treated with a compound for 65 hours and then recovered, and intracellular HBV DNA was extracted therefrom according to the protocol in the DNeasy Blood & Tissue Kit (Qiagen). The primers and probes used to quantify HBV DNA were 5′-[…]-3′, 5′-[…]-3′, and 5′-/56-FAM/TGT CCT GGT/ZEN/[…]/3IABKFQ/-3′. The HBV DNA was amplified by real-time PCR assay using LightCycler 480 (Roche) (J. Virol., 2018, 92(16):e00339-18). All of the processes were confirmed in duplicate.

[2] = system: HepAD38 cells; assay: Cell viability assay (EZ-Cytox) in HepAD38 cells; type: cell-based; conditions: 65 hours of treatment
Experimental: (§1) HepAD38 cells were cultured for 2 days in Dulbecco's Modified Eagle's medium (Welgene, LM001-05) supplemented with 10% FBS without tetracycline. The cells were seeded in 48-well culture plates (1×10^5 cells/well) and treated with each compound at five concentrations (0 μM (0.8% DMSO as a control), 33 μM, 50 μM, 66 μM, and 100 μM). After 65 hours of treatment, viability was measured using EZ-Cytox cell viability assay kit (Daeil Lab Service) according to the manufacturer's instructions. The absorbance was measured at 450 nm using a spectrophotometer (Spark, Tecan). Here, NVR-3-778 (denoted as NVR) was used as a positive control.

[3] = target: Protein (capsid assembly) (Hepatitis B virus genotype D subtype ayw, UniProt P03146); assay: Protein inhibition (capsid assembly inhibition), Table 1; type: biochemical; conditions: for EC50: NVR value of the same run in brackets, read-out: Protein EC50; for inhibition at 30 µM: read-out: Protein % inhibition rate (@30 μM)
[4] = Cell viability assay (EZ-Cytox) in HepAD38 cells; type: cell-based; conditions: human, 65 hours of treatment; for CC50 at 65 h: read-out: Cytotoxicity CC50; for viability at 65 h, 100 µM: read-out: Cytotoxicity % Livability (@100 μM)
Experimental: as §1

[5] = Hepatitis B virus, HePAD38, 65 h

Chain of Protein (capsid assembly) (P03146 whole entry): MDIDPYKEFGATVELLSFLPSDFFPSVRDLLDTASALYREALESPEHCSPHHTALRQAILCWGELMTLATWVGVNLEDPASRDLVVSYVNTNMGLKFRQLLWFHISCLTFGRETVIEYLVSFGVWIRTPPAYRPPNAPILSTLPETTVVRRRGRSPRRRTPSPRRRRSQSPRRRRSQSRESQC

Structure (SMILES): O=C(Nc1ccc(F)c(Cl)c1)N(Cc1nnc2n1CCOC2)c1ccc2c(c1)OCO2 [Example 4, 1-(Benzo[d][1,3]dioxol-5-yl)-3-(3-chloro-4-fluorophenyl)-1-((6,8-dihydro-5H-[1,2,4]triazolo[3,4-c][1,4]oxazin-3-yl)methyl)urea]
- IC50 [1]: 250 nM
- CC50 ([2]; read-out: Cytotoxicity CC50): > 100000 nM
- Protein % inhibition rate (@30 μM) ([3]; @30 μM): 84%
- EC50 [3]: 6800 nM

Structure (SMILES): COc1ccc(N(Cc2nnc3n2CCCCC3)C(=O)Nc2ccc(F)c(Cl)c2)cc1 [Example 3, 3-(3-Chloro-4-fluorophenyl)-1-(4-methoxyphenyl)-1-((6,7,8,9-tetrahydro-5H-[1,2,4]triazolo[4,3-a]azepin-3-yl)methyl)urea]
- IC50 [1, 5]: 190 nM
- CC50 at 65 h [4]: > 100000 nM
- viability at 65 h, 100 µM [4]: 91.9%
- inhibition at 30 µM ([3]; @30 μM): 89%
- EC50 [3]: 1600 nM

Structure (SMILES): COc1ccc(N(Cc2nnc3n2CCOCC3)C(=O)Nc2ccc(F)c(Cl)c2)cn1 [Example 40, 3-(3-Chloro-4-fluorophenyl)-1-(6-methoxypyridin-3-yl)-1-((5,6,8,9-tetrahydro-[1,2,4]triazolo[4,3-d][1,4]oxazepin-3-yl)methyl)urea]
- IC50 [1, 5]: 84 nM
- CC50 at 65 h [4]: > 100000 nM
- viability at 65 h, 100 µM [4]: 88.6%
- Cytotoxicity % Livability (@100 μM) ([2]; @100 μM): 100.3%
- inhibition at 30 µM ([3]; @30 μM): 82.8%
- EC50 [3]: 1500 nM

Structure (SMILES): COc1ccc(N(Cc2nnc3n2CCOCC3)C(=O)Nc2ccc(F)c(Cl)c2)cc1 [Example 27, 3-(3-Chloro-4-fluorophenyl)-1-(4-methoxyphenyl)-1-((5,6,8,9-tetrahydro-[1,2,4]triazolo[4,3-d][1,4]oxazepin-3-yl)methyl)urea]
- IC50 [1, 5]: 32 nM
- CC50 at 65 h [4]: > 100000 nM
- viability at 65 h, 100 µM [4]: 91%
- inhibition at 30 µM ([3]; @30 μM): 65%
- EC50 [3]: 2300 nM

Structure (SMILES): O=C(Nc1ccc(F)c(Cl)c1)N(Cc1nnc2n1CCCCC2)c1ccc2ncsc2c1 [Example 16, 1-(Benzo[d]thiazol-6-yl)-3-(3-chloro-4-fluorophenyl)-1-((6,7,8,9-tetrahydro-5H-[1,2,4]triazolo[4,3-a]azepin-3-yl)methyl)urea]
- IC50 [1, 5]: 124 nM
- CC50 at 65 h [4]: > 100000 nM
- viability at 65 h, 100 µM [4]: 93.9%
- inhibition at 30 µM ([3]; @30 μM): 80.9%
- EC50 [3]: 2200 nM

Structure (SMILES): O=C(Nc1ccc(F)c(Cl)c1)N(Cc1nnc2n1CCOCC2)c1ccc2c(c1)OCO2 [Example 7, 1-(Benzo[d][1,3]dioxol-5-yl)-3-(3-chloro-4-fluorophenyl)-1-((5,6,8,9-tetrahydro-[1,2,4]triazolo[4,3-d][1,4]oxazepin-3-yl)methyl)urea]
- IC50 [1, 5]: 30 nM
- CC50 at 65 h [4]: > 100000 nM
- viability at 65 h, 100 µM [4]: 96.4%
- inhibition at 30 µM ([3]; @30 μM): 80%
- EC50 [3]: 1000 nM

Structure (SMILES): COc1ccc(N(Cc2nnc(-c3ccccc3)n2C)C(=O)Nc2ccc(F)c(Cl)c2)cc1 [Example 24, 3-(3-Chloro-4-fluorophenyl)-1-(4-methoxyphenyl)-1-((4-methyl-5-phenyl-4H-1,2,4-triazol-3-yl)methyl)urea]
- IC50 [1, 5]: > 3300 nM
- CC50 at 65 h [4]: > 100000 nM
- inhibition at 30 µM ([3]; @30 μM): -1%

Structure (SMILES): O=C(Nc1ccc(F)c(Cl)c1)N(Cc1nnc2n1CCCCC2)c1ccc2c(c1)OCO2 [Example 2, 1-(Benzo[d][1,3]dioxol-5-yl)-3-(3-chloro-4-fluorophenyl)-1-((6,7,8,9-tetrahydro-5H-[1,2,4]triazolo[4,3-a]azepin-3-yl)methyl)urea]
- IC50 [1, 5]: 40 nM
- CC50 at 65 h [4]: > 100000 nM
- viability at 65 h, 100 µM [4]: 100%
- inhibition at 30 µM ([3]; @30 μM): 81%
